# System: Sonnenblume
# Experiment: Field test of chemical sterilisation of sunflower pollen
# Type: in vivo
# Settings: Linie BK-373 (WK-373); V. Periode der Organogenese; Beispiel 78: 2%ige, 79: 0,2%ige Emulsion
# Description: (§1) Die gametozide Aktivitat der erfindungsgemäßen Sterilisationsmittel war im Feldversuch in verschiedenen bodenklimatischen Zonen mit Teilstücken von 10 m^2 Größe in drei- bis viermaliger Wiederholung festgestellt. Jedes Sterilisationsmittel wurde mindenstens 5 Jahre lang geprüft.
# (§2) Die Entwicklung der Perioden der Organogenese wird zytologisch überwacht. Die Behandlung von Pflanzen mit dem Sterilisationsmittel erfolgt am Anfang der fünften Periode der Organogenese nach Kupermann.
# Zur Kontrolle der chemischen Sterilisation des Sonnenblumenpollens werden für jede Verbindung 45 behandelte Pflanzen jeder Wiederholung benutzt, wobei 15 Pflanzen von denen zwecks Selbsbestäubung isoliert werden, Blütenkorbchen anderer 15 Pflanzen mit einem Pollengemisch, gesammelt von 20 bis 25 behandelten isolierten Körbchen, bestäubt werden, und 15 Pflanzen für freie Bestäubung gelassen werden, damit das Ansetzen von Achänen mit dem Pollen der väterlichen Form kontrolliert werden kann.
# Man beurteilt die Pollensterilität von Pflanzen der Sonnenblume nach der Pollenfertilität und -keimfähigkeit, nach den morphologischen Besonderheiten von Spermien und nach der Fähigkeit von Achänen zum Ansetzen bei der Bestäubung der behandelten isolierten Pflanzen mit dem Pollen der unbehandelten väterlichen Form. Die Lebensfähigkeit der Eizelle wird nach der Samenbildung von behandelten Pflanzen bei freier Bestäubung mit der väterlichen Form bestimmt.
# Man behandelt die Sonnenblume Sorte BHNNMK 8931 (WNIIMK 8931) in der V. Periode der Organogenese mit 0,5%iger wäßriger Emulsion von 4-Karboxybutyldezylsulfid, mit 1%iger Emulsion der δ, δ' -Sulfonyldivaleriansäure, 2%iger Emulsion von Bis(2-äthylhexyläther) der δ, δ' -Thiodivaleriansäure; die Sonnenblume der Linie BK-373 (WK-373) mit 2%iger Emulsion von Bis(2-äthylhexyläther) der δ δ' --Thiodivaleriansäure, mit 0,2%iger Emulsion von Bis(di--n-butyläther) der δ, δ' -Thiodivaleriansäure; die Sonnenblume der Linie BK=364 (WK-365) mit 2%iger wäßriger Emulsion von Bis(2-äthylhexyläther) der δ, δ' -Thirodivaleriansäure, mit 0,2%iger Emulsion von Bis(di-n-butyläther) der δ, δ' -Thiodivaleriansäure. Die Emulsion enthält 0,1 Masse% Kalziumalkylbenzolsulfonat mit 12 bis 14 Kohlenstoffatomen und 0,01 Masse% Dimethylsulfoxid. Als Kontrolle dienen Pflanzen, behandelt mit einem Verdünner ohne Sterilisationsmittel. Die Prüfergebnisse sind in der Tabelle 17 angegeben. […] Periode der Organogenese erhalten.
SMILES,Prozentsatz der Sterilität,Prozentsatz des Ansetzens von Achänen bei freier Bestäubung
"CCCCC(CC)COC(=O)CCCCSCCCCC(=O)OCC(CC)CCCC (stereo not drawn) [Beispiel 78, Bis(2-äthylhexyläther) der δ δ' --Thiodivaleriansäure]","100,0%","60,7%"
"CCCCOC(=O)CCCCSCCCCC(=O)OCCCC [Beispiel 79, Bis(di--n-butyläther) der δ, δ' -Thiodivaleriansäure]","100,0%","62,7%"

# Same assay, conditions: Sorte ВНИИМК 8931 (WNIIMK 8931); V. Periode der Organogenese; Beispiel 75: 0,5%ige, 76: 1%ige, 77: 2%ige Emulsion
SMILES,Prozentsatz der Sterilität,Prozentsatz des Ansetzens von Achänen bei freier Bestäubung
"CCCCCCCCCCSCCCCC(=O)O [Beispiel 75, 4-Karboxybutyldezylsulfid]","100,0%","82,9%"
"O=C(O)CCCCS(=O)(=O)CCCCC(=O)O [Beispiel 76, δ, δ' -Sulfonyldivaleriansäure]","100,0%","71,6%"
"CCCCC(CC)COC(=O)CCCCSCCCCC(=O)OCC(CC)CCCC (stereo not drawn) [Beispiel 77, Bis(2-äthylhexyläther) der δ, δ' -Thiodivaleriansäure]","100,0%","82,1%"

# System: tetraploidem Roggen
# Experiment: Field test of gametocidal activity (sterilisation of anthers), tetraploid rye
# Type: in vivo
# Settings: Sorte Belta; V. Periode der Organogenese; 1%ige wäßrige Emulsion; 6 kg/ha
# Description: as §1, §2
# (§3) Mit dem Ährenschieben verwirklicht man die Isolierung von Hauptähren und anderen Stockwerken in Pergamentbeuteln. Bei Weizen und Tritikale werden Einzelisolatoren benutzt. Bei Roggen schließt man je Ähre 5 bis 7 verschiedene nebeneinander befindliche Pflanzen unter einen gemeinsamen Isolator ein. Bei Hierse wird jede Rispe getrennt isoliert. Der Sterilitätsprozentsatz (X) für Weizen, Roggen, Tritikale und Hirse wird nach der Formel [formula] ermittelt.
# (§4) Die Kornzahl in nicht isolierten Ähren von Kontrollpflanzen wird bedingt für 100 % Ansetzen bei freier Bestäubung angenommen.
# (§5) Um zuverlässige Angaben zu erhalten, verwendet man 20 bis 25 Isolatoren jeder Wiederholung für Weizen und Tritikale, 10 .bis 15 Isolatoren jeder Wiederholung für Roggen und Hirse.
# Pflanzen von tetraploidem Roggen Sorte Belta werden in der V. Periode der Organogenese (nach Kupermann) mit 1%iger wäßriger Emulsion von d, δ' -Thiodivaleriansäure, Natriumsalz der δ, δ' -Thiodivaleriansäure, δ, δ' -Sulfonylvaleriansäure, Natriumsalz der δ, δ' -Sulfonyldivaleriansäure, Kaliumsalz der d, δ' -Sulfonyldivaleriansäure, Bis(di-n-butyläther) der δ, δ' -Thiodivaleriansäure, Bis(2-Äthylhexyläther) der δ, δ'-Thiodivaleriansäure, 4-Karboxybutyldezylsulfid behandelt. Die Emulsion enthält 0,1 Masse% Kalziumalkylbenzolaulfonat und 0,01 Masse% Dimethylsulfoxid. Der Verbrauch an Präparat beträgt 6 kg/ha. Als Kontrolle dienen Pflanzen, behandelt mit einem Verdünner ohne Sterilisationsmittel. Die Prüfergebnisse sind in der Tabelle 11 angegeben. […] Periode der Organogese erhalten.
SMILES,Anzahl von Körnern der Ähre bei freier Bestäubung,Anzahl von Körnern der Ähre im Isolator,Prozentsatz der Sterilität,Prozentsatz des Ansetzens von Körnern bei freier Bestäubung
"O=C(O)CCCCSCCCCC(=O)O [Beispiel 51, d, δ' -Thiodivaleriansäure]","32,9","0,3","99,3%","74,4%"
"O=C(O)CCCCSCCCCC(=O)O [Beispiel 52, Natriumsalz der δ, δ' -Thiodivaleriansäure]","40,6","0,1","99,8%","91,8%"
"O=C(O)CCCCS(=O)(=O)CCCCC(=O)O [Beispiel 53, δ, δ' -Sulfonylvaleriansäure]","39,0","0,0","100,0%","88,2%"
"O=C(O)CCCCS(=O)(=O)CCCCC(=O)O [Beispiel 54, Natriumsalz der δ, δ' -Sulfonyldivaleriansäure]","34,6","0,0","100,0%","78,2%"
"O=C(O)CCCCS(=O)(=O)CCCCC(=O)O [Beispiel 55, Kaliumsalz der d, δ' -Sulfonyldivaleriansäure]","34,0","0,0","100,0%","76,9%"
"CCCCOC(=O)CCCCSCCCCC(=O)OCCCC [Beispiel 56, Bis(di-n-butyläther) der δ, δ' -Thiodivaleriansäure]","38,2","0,0","100,0%","86,7%"
"CCCCC(CC)COC(=O)CCCCSCCCCC(=O)OCC(CC)CCCC (stereo not drawn) [Beispiel 57, Bis(2-Äthylhexyläther) der δ, δ'-Thiodivaleriansäure]","42,7","0,0","100,0%","96,6%"
"CCCCCCCCCCSCCCCC(=O)O [Beispiel 58, 4-Karboxybutyldezylsulfid]","40,3","0,0","100,0%","91,2%"

# System: Tritikale
# Experiment: Field test of gametocidal activity (sterilisation of anthers), triticale
# Type: in vivo
# Settings: PRAG 109; V. Periode der Organogenese; 1,5%ige wäßrige Emulsion; 15 kg/ha
# Description: as §1, §2, §3, §4, §5
# Pflanzen von Tritikale PRAG 109 werden in der V. Periode der Organogenese (nach Kupermann) mit 1,5%iger wäßriger Emulsion von Bis(di-n-butyläther) der δ, δ' -Thiodivaleriansäure, 4-Kaxboxybutyldezylsulfid, Bis(2-Äthylhexyläther) der δ, δ' -Thiodivaleriansäure behandelt. Die Emulsion enthält 0,1 Masse% Kalziumalkylbenzolsulfonat mit 12 bis 14 Kohlenstoffatomen und 0,01 Masse% Tetrahydrofuran. Der Verbrauch an Präparat beträgt 15 kg/ha. Als Kontrolle dienen Pflanzen, behandelt mit einem Verdünner ohne Sterilisationsmittel. Die Prüfergebnisse sind in der Tabelle 12 angegeben. […] Periode der Organogenese erhalten.
# Pflanzen von Tritikale der Sorte Amphidiploid 206 werden in der V. Periode der Organogenese (nach Kupermann) mit 1,5%iger wäßriger Emulsion von Natriumsalz der δ, δ'-Thiodivaleriansäure, δ, δ' -Sulfonyldivaleriansäure Kaliumsalz der d , δ' -Sulfonyldivaleriansäure behandelt. Die Emulsion enthalt 0,1 Masse% Kalziumalkylbenzolsulfonat mit 12 bis 14 Kohlenstoffatomen und 0,01 Masse% Dodezylsulfat. Der Verbrauch an Präparat beträgt 9 kg/ha. Als Kontrolle dienen Pflanzen, behandelt mit einem Verdünner ohne Sterilisationsmittel. Die Prüfergebnisse sind in der Tabelle 13 angegeben. […] Periode der Organogenese erhalten.
SMILES,Anzahl von Körnern der Ähre bei freier Bestäubung,Anzahl von Körnern der Ähre im Isolator,Prozentsatz der Sterilität,Prozentsatz des Ansetzens von Körnern bei freier Bestäubung
"CCCCOC(=O)CCCCSCCCCC(=O)OCCCC [Beispiel 59, Bis(di-n-butyläther) der δ, δ' -Thiodivaleriansäure]","40,1","0,3","99,3%","87,6%"
"CCCCCCCCCCSCCCCC(=O)O [Beispiel 60, 4-Kaxboxybutyldezylsulfid]","42,3","0,0","100,0%","92,4%"
"CCCCC(CC)COC(=O)CCCCSCCCCC(=O)OCC(CC)CCCC (stereo not drawn) [Beispiel 61, Bis(2-Äthylhexyläther) der δ, δ' -Thiodivaleriansäure]","40,8","0,0","100,0%","89,1%"

# Same assay, conditions: Sorte Amphidiploid 206; V. Periode der Organogenese; 1,5%ige wäßrige Emulsion; 9 kg/ha
SMILES,Anzahl von Körnern der Ähre bei freier Bestäubung,Anzahl von Körnern der Ähre im Isolator,Prozentsatz der Sterilität,Prozentsatz des Ansetzens von Körnern bei freier Bestäubung
"O=C(O)CCCCSCCCCC(=O)O [Beispiel 62, Natriumsalz der δ, δ'-Thiodivaleriansäure]","32,5","0,9","97,2%","88,8%"
"O=C(O)CCCCS(=O)(=O)CCCCC(=O)O [Beispiel 63, δ, δ' -Sulfonyldivaleriansäure]","30,1","0,1","99,7%","82,2%"
"O=C(O)CCCCS(=O)(=O)CCCCC(=O)O [Beispiel 64, Kaliumsalz der d , δ' -Sulfonyldivaleriansäure]","29,8","0,0","100,0%","81,4%"
